Measurements: PMC5635289, “Differential Effects of Angelicin Analogues on NF-κB Activity and IL-8 Gene Expression in Cystic Fibrosis IB3-1 Cells” (Mediators of Inflammation, 2017)

How the values were obtained:
NF-κB p50 = biological target: T1, NF-κB p50 (Homo sapiens, UniProt P19838); experiment: EMSA, inhibition of NF-κB/DNA interactions; format: binding; conditions: NF-κB p50 and 32P-labeled NF-κB oligonucleotide, MIC = minimal inhibitory concentration, 12.5 μM was the lowest concentration used
T1 construct: This assay was performed using purified NF-κB p50; purchased Promega
T1 sequence (P19838 1-433 limits assumed): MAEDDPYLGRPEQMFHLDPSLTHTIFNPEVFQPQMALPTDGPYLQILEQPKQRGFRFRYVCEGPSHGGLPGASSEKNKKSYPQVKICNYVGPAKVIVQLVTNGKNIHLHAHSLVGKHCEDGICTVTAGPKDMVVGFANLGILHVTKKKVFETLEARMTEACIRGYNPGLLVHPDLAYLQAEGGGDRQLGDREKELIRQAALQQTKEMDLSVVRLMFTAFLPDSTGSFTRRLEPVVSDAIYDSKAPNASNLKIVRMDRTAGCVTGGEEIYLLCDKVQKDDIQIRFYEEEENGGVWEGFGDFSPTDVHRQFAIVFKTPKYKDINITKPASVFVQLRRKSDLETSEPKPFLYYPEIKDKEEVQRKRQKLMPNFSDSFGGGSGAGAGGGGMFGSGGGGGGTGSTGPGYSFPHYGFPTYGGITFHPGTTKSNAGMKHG
Description: Electrophoretic mobility shift assays were performed using double-stranded ^32P-labeled oligonucleotides as target DNA. Binding reactions were set up as previously described in binding buffer (10% glycerol, 0.05% NP-40, 10 mM Tris-HCl pH 7.5, 50 mM NaCl, 0.5 mM DTT, and 10 mM MgCl2), in the presence of 0.1 μl/20 μl of NF-κB p50 (50 gsu) (Promega, Madison, WI, USA) and 0.25 ng of labeled oligonucleotide, in a total volume of 20 μl. After 30 min binding at room temperature, samples were electrophoresed at constant voltage (200 V for 30 min) through a low ionic strength (0.25 TBE buffer) (1 TBE/40.089 M Tris-borate, 0.002 M EDTA) on 6% polyacrylamide gels until the tracking dye (bromophenol blue) reached the bottom of a 16 cm slab. Gels were dried and exposed for autoradiography with intensifying screens at […]. In these experiments, DNA/protein complexes migrate through the gel with slower efficiency. In studies on the inhibitors of protein/DNA interactions, addition of the reagents was as follows: (i) nuclear factors, (ii) active principles, (iii) binding buffer, and (iv) labeled oligonucleotides mimicking the binding sites for TF to be modulated. The nucleotide sequence of double-stranded target DNA utilized in these experiments was 5′-CGC TGG GGA CTT TCC ACG G-3′ (sense strand, NF-κB). The synthetic oligonucleotides utilized in this study were purchased from Sigma Genosys (Sigma Genosys, Cambs, UK). To calculate the effective concentrations, three different autoradiograms obtained from different time exposures were scanned and compared to control EMSA performed without addition of angelicin analogues (two independent experiments were performed).
The effects of TMA derivatives on NF-κB- (nuclear factor-kappaB-) mediated induction of proinflammatory genes was verified first in vitro by electrophoretic mobility shift assay (EMSA) with the aim to verify and quantify the possible inhibition of NF-κB/DNA interactions. This assay was performed using purified NF-κB p50 and ^32P-labeled target NF-κB double-stranded oligonucleotide mimicking the NF-κB consensus sequence present within the IL-8 gene promoter.

IL-8 = experiment: Bioplex analysis of IL-8 release in TNF-α-induced IB3-1 cells; format: cell-based, human; conditions: 1 μM, compared to untreated TNF-α-stimulated IB3-1 cells, 5 h pretreatment then TNF-α 24 h
Description: The Bioplex cytokine assay is designed for the multiplexed quantitative measurement of multiple cytokines in a single well using as little as 50 μl of sample. In our experiments, the premixed multiplex beads (27-plex) of the Bioplex human cytokines were used. 50 μl of cytokine standards or samples (supernatants recovered from treated cells and diluted to 2 μg/μl) were incubated with 50 μl of anticytokine conjugated beads in 96-well filter plates for 30 min at room temperature with shaking. Plates were washed by vacuum filtration three times with 100 μl of Bioplex wash buffer, 25 μl of diluted detection antibody were added, and plates were incubated for 30 min at room temperature with shaking. After three filter washes, 50 μl of streptavidin-phycoerythrin were added, and the plates were incubated for 10 min at room temperature with shaking. Finally, plates were washed by vacuum filtration three times, beads were suspended in Bioplex assay buffer, and samples were analyzed on a Bio-Rad 96-well plate reader using the Bioplex Suspension Array System and Bioplex Manager software (Bio-Rad Laboratories Inc., Hercules, CA).
In order to verify the effects on the secretion of IL-8 by IB3-1 cells, Luminex technology was employed to detect and quantify proteins secreted into the medium. […]

IB3-1 cells = experiment: Cell proliferation assay on IB3-1 cells; format: cell-based; conditions: Homo sapiens, cell number/ml after 48 h of treatment
Description: Monolayers of 60% confluent IB3-1 cells were seeded in 24- or 12-well plates in LHC-8 medium in the presence of 5% FBS. After 24 h, TMA derivatives were added at serial dilutions and incubated for further 2-3 days. The effects of compounds (TMA derivatives) on the cell proliferation were analyzed as elsewhere described. A first analysis was performed with serial dilutions to obtain 50 μM, 200 μM, and 800 μM solutions. In order to determine IC50 values, the following concentrations were used 12.5, 25, 50, 100, 200, and 800 μM. In order to prepare the cells for counting, they were washed with PBS 1X and detached with trypsin/EDTA. Cells were suspended in physiological solution and counted with a Z2 Coulter Counter (Coulter Electronics, Hialeah, FL, USA). The cell number/ml was determined as IC50 after 2 days of culture, when untreated cells are in log phase of cell growth.
In order to obtain preliminary information on the biological properties of TMA derivatives, their effects on cell growth were examined on IB3-1 cell line, excellent biological model to study new potential anti-inflammatory molecules. The use of this cell line to study the expression of proinflammatory molecules under a variety of stimuli is well established. Monolayers of 60% confluent IB3-1 cells were seeded in 12-well plate in LHC-8 medium with 5% FBS. After 24 h, compounds were added at different concentrations and the cell number/ml was determined after further 48 h of culture.

Inhibition of NF-κB/DNA complex (MIC) (NF-κB p50): <12.5 (^∗) μM
SMILES: Cc1oc2c(C)cc3c(C)cc(=O)oc3c2c1C [Compound 1]
Reduction of IL-8 secretion (IL-8): about 50%
IC50 (IB3-1 cells): > 800 µM
